Source: US9006262B2 (priority 2011, dated 2015)

Test system: C57BL/6 mouse line transplanted with B16-F10 melanoma cells
Settings: in vivo

Row | Compound | life-prolonging effect (survival rate / lifetime) | suppressive effect on body weight loss (percent change in body weight)
1 | CN(C(=O)/C=C/c1ccoc1)[C@@H]1CC[C@@]2(O)[C@H]3Cc4ccc(O)c5c4[C@@]2(CCN3CC2CC2)[C@H]1O5.Cl [Compound 1, (−)-17-(cyclopropylmethyl)-3,14β-dihydroxy-4,5α-epoxy-6β-[N-methyl-trans-3-(3-furyl)acrylamido]morphinan hydrochloride] | statistically significant life-prolonging effect | statistically significant suppressive effect on body weight loss
2 | CN1CC[C@]23c4c5ccc(O)c4O[C@H]2[C@@H](O)C=C[C@H]3[C@H]1C5 [morphine, Morphine] | tendency to reduce the lifetime | tendency of further body weight loss
